Assay results as given in the supplement of paper PMC11061612.

Assays:
Assay in all cases: Bliss excess, mean over the matrix (fraction); higher = more synergy
[1] = test system: DU-145 (Prostate Carcinoma)
Outline: (§1)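 After 24 hours at 37°C and 5% CO2 in 1536-well plates, cells in DMEM/F12 or RPMI plus 10% FBS received two-drug dose matrices for 72 hours. Viability came from CellTiter-Glo 2.0 luminescence and was scaled as inhibition, anchored at 0 by vehicle wells and at 1 by blank wells. Combination Emax is taken as the second-highest inhibition in the matrix, and Bliss excess as the observed combination effect less EA + EB − EA·EB, with EA and EB the single-agent effects.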

[2] = test system: NCI-H1838 (Lung Adenocarcinoma)
Outline: as §1

EW-1 (Ewing's Sarcoma) = test system: EW-1 (Ewing's Sarcoma)
Outline: as §1

[3] = test system: HCC1937 (Breast Carcinoma)
Outline: as §1

[4] = test system: ME-180 (Cervical Carcinoma)
Outline: as §1

[5] = test system: MOLT-4 (T-Lymphoblastic Leukemia)
Outline: as §1

[6] = test system: Ca-Ski (Cervical Carcinoma)
Outline: as §1

[7] = test system: A4-Fuk (B-Lymphoblastic Leukemia)
Outline: as §1

[8] = test system: NCI-H1092 (Small Cell Lung Carcinoma)
Outline: as §1

[9] = test system: SW872 (Other Solid Carcinomas)
Outline: as §1

[10] = test system: NCI-H1355 (Lung Adenocarcinoma)
Outline: as §1

[11] = test system: OE33 (Esophageal Adenocarcinoma)
Outline: as §1

[12] = test system: MV-4-11 (Acute Myeloid Leukemia)
Outline: as §1

[13] = test system: LC-1-sq (Squamous Cell Lung Carcinoma)
Outline: as §1

[14] = test system: COLO-668 (Small Cell Lung Carcinoma)
Outline: as §1

[15] = test system: HCC1500 (Breast Carcinoma)
Outline: as §1

[16] = test system: ALL-SIL (T-Lymphoblastic Leukemia)
Outline: as §1

[17] = test system: NCI-H522 (Lung Adenocarcinoma)
Outline: as §1

[18] = test system: SNU-387 (Hepatocellular Carcinoma)
Outline: as §1

[19] = test system: KMRC-1 (Kidney Carcinoma)
Outline: as §1

Row | SMILES | Bliss excess [1] | Bliss excess [2] | Bliss excess (EW-1 (Ewing's Sarcoma)) | Bliss excess [3] | Bliss excess [4] | Bliss excess [5] | Bliss excess [6] | Bliss excess [7] | Bliss excess [8] | Bliss excess [9] | Bliss excess [10] | Bliss excess [11] | Bliss excess [12] | Bliss excess [13] | Bliss excess [14] | Bliss excess [15] | Bliss excess [16] | Bliss excess [17] | Bliss excess [18] | Bliss excess [19]
1 | Cc1c2c(nn1C)CSCc1cc(n(C)n1)CSc1cc(c3ccccc3c1)OCCCc1c(C(=O)O)n(C)c3c-2c(Cl)ccc13 [AZD5991] + Cc1cc2ncnn2cc1Nc1ncc2c(n1)n(C1CCOCC1)c(=O)n2C [AZD7648] (first compound max 1 µM, 7x7, partner max 10 µM) | -0.0307 | -0.0929 | -0.0108 | -0.015 | -0.009 | -0.0072 | -0.0079 | 0.0085 | -0.0458 | -0.0235 | -0.0055 | -0.0304 | -0.0151 | 0.0048 | 0.0003 | -0.0471 | -0.0253 | -0.0586 | -0.0318 | -0.0161
2 | CC1(C)CCC(CN2CCN(c3ccc(C(=O)NS(=O)(=O)c4ccc(NCC5CCOCC5)c([N+](=O)[O-])c4)c(Oc4cnc5[nH]ccc5c4)c3)CC2)=C(c2ccc(Cl)cc2)C1 [Venetoclax] + Cn1cnc2c(F)c(Nc3ccc(Br)cc3Cl)c(C(=O)NOCCO)cc21 [Selumetinib] (first compound max 1 µM, 7x7, partner max 3 µM) | -0.0121 | -0.0013 | -0.0483 | -0.0392 | -0.01 | 0.021 | -0.0038 | 0.0163 | -0.0691 | -0.0158 | -0.032 | -0.0192 | -0.0022 | -0.0135 | 0.116 | -0.023 | 0.0035 | -0.0215 | -0.0601 | -0.0344
3 | COc1cccc(OCCCN)c1-c1cc(Nc2cnc(C#N)cn2)n[nH]1 [Prexasertib] + O=C(c1cc(Cc2n[nH]c(=O)c3ccccc23)ccc1F)N1CCN(C(=O)C2CC2)CC1 [Olaparib] (first compound max 1 µM, 7x7, partner max 10 µM) | -0.0144 | -0.153 | -0.0144 | -0.103 | -0.0511 | 0.0154 | -0.0243 | 0.0189 | -0.0514 | -0.018 | -0.0448 | -0.0925 | -0.0247 | -0.0468 | -0.0759 | -0.004 | -0.0222 | -0.0491 | 0.0083 | -0.0411
4 | CC1(C)CCC(CN2CCN(c3ccc(C(=O)NS(=O)(=O)c4ccc(NCC5CCOCC5)c([N+](=O)[O-])c4)c(Oc4cnc5[nH]ccc5c4)c3)CC2)=C(c2ccc(Cl)cc2)C1 [Venetoclax] + COc1cc(Nc2ncc3c(n2)-c2ccc(Cl)cc2C(c2c(F)cccc2OC)=NC3)ccc1C(=O)O [Alisertib] (first compound max 1 µM, 7x7, partner max 10 µM) | -0.0117 | -0.0183 | 0.174 | -0.0852 | -0.0226 | -0.0938 | 0.0128 | -0.026 | 0.294 | 0.0428 | -0.0205 | 0.0221 | 0.0134 | -0.0116 | 0.066 | 0.141 | 0.0202 | 0.0305 | -0.0456 | -0.012
5 | CN(C)CCCOc1ccc(-c2ccc3ncc4c(c3c2)n(C2CCOCC2)c(=O)n4C)cn1 [AZD0156] + C[C@@H]1COCCN1C2=NC(=NC(=C2)C3(CC3)[S@](=N)(=O)C)C4=C5C=CNC5=NC=C4 [AZD6738] (first compound max 1 µM, 7x7, partner max 10 µM) | -0.0233 | -0.0082 | 0.042 | -0.0386 | -0.0468 | 0.0033 | -0.0036 | -0.0079 | -0.0427 | 0.0187 | -0.0234 | -0.0451 | -0.06 | -0.0098 | -0.017 | -0.0112 | -0.0759 | -0.0258 | 0.0187 | -0.0496
6 | Cc1c2c(nn1C)CSCc1cc(n(C)n1)CSc1cc(c3ccccc3c1)OCCCc1c(C(=O)O)n(C)c3c-2c(Cl)ccc13 [AZD5991] + C[C@@H](Nc1cc(F)cc(F)c1)c1cc(C(=O)N(C)C)cc2c(=O)cc(N3CCOCC3)oc12 [AZD8186] (first compound max 1 µM, 7x7, partner max 3 µM) | -0.0204 | 0.0503 | -0.0431 | -0.0001 | -0.0244 | 0.0193 | 0.0515 | -0.023 | 0.0172 | -0.0214 | -0.064 | -0.0003 | 0.0375 | 0.0352 | -0.0011 | 0.0182 | -0.0301 | 0.0196 | -0.0089 | -0.0264
7 | Cc1c2c(nn1C)CSCc1cc(n(C)n1)CSc1cc(c3ccccc3c1)OCCCc1c(C(=O)O)n(C)c3c-2c(Cl)ccc13 [AZD5991] + CC1(C)CCC(CN2CCN(c3ccc(C(=O)NS(=O)(=O)c4ccc(NCC5CCOCC5)c([N+](=O)[O-])c4)c(Oc4cnc5[nH]ccc5c4)c3)CC2)=C(c2ccc(Cl)cc2)C1 [Venetoclax] (first compound max 1 µM, 7x7, partner max 1 µM) | -0.0185 | 0.0125 | 0.103 | -0.0208 | 0.0131 | 0.124 | 0.0006 | -0.03 | 0.117 | -0.0443 | -0.0567 | -0.0077 | 0.0591 | 0.0184 | 0.0932 | 0.256 | 0.0333 | -0.0118 | -0.0426 | -0.0446
8 | CC1(C)CCC(CN2CCN(c3ccc(C(=O)NS(=O)(=O)c4ccc(NCC5CCOCC5)c([N+](=O)[O-])c4)c(Oc4cnc5[nH]ccc5c4)c3)CC2)=C(c2ccc(Cl)cc2)C1 [Venetoclax] + C[C@@H]1COCCN1C2=NC(=NC(=C2)C3(CC3)[S@](=N)(=O)C)C4=C5C=CNC5=NC=C4 [AZD6738] (first compound max 1 µM, 7x7, partner max 10 µM) | -0.0097 | -0.0508 | -0.0224 | -0.0587 | 0.0165 | 0.0382 | -0.006 | 0.0028 | 0.0739 | 0.0001 | -0.0593 | -0.0549 | -0.006 | -0.0095 | 0.032 | 0.0413 | -0.0217 | -0.0099 | -0.0363 | -0.0365
9 | NC1(C(=O)N[C@@H](CCO)c2ccc(Cl)cc2)CCN(c2ncnc3[nH]ccc23)CC1 [Capivasertib] + CC(C)n1c(=O)n(C)c2cnc3cc(F)c(-c4ccc(OCCCN5CCCCC5)nc4)cc3c21 [AZD1390] (first compound max 10 µM, 7x7, partner max 0.3 µM) | -0.0598 | -0.123 | -0.0622 | -0.0666 | -0.033 | -0.0083 | -0.0436 | -0.0472 | -0.0596 | -0.0562 | -0.0206 | -0.0563 | -0.0393 | -0.0461 | -0.0298 | -0.0334 | -0.0482 | -0.0502 | -0.101 | -0.0645
10 | COc1cccc(OCCCN)c1-c1cc(Nc2cnc(C#N)cn2)n[nH]1 [Prexasertib] + C=CCn1c(=O)c2cnc(Nc3ccc(N4CCN(C)CC4)cc3)nc2n1-c1cccc(C(C)(C)O)n1 [AZD1775] (first compound max 1 µM, partner max 1 µM) | 0.0361 | -0.131 | 0.0461 | -0.0247 | 0.0017 | 0.0873 | 0.0816 | -0.0205 | 0.031 | 0.144 | -0.0039 | 0.0352 | 0.0775 | 0.0581 | 0.0952 | 0.146 | 0.0648 | 0.143 | 0.081 | 0.0366
11 | COc1cccc(OCCCN)c1-c1cc(Nc2cnc(C#N)cn2)n[nH]1 [Prexasertib] + Cc1cc2ncnn2cc1Nc1ncc2c(n1)n(C1CCOCC1)c(=O)n2C [AZD7648] (first compound max 1 µM, 7x7, partner max 10 µM) | -0.0381 | -0.0126 | -0.0217 | -0.0594 | 0.0041 | 0.0091 | -0.0159 | -0.0989 | -0.0287 | 0.0191 | -0.0405 | 0.0061 | -0.0083 | 0.0099 | -0.0459 | 0.0354 | -0.0258 | -0.0005 | -0.0434 | -0.0152
12 | Cc1c2c(nn1C)CSCc1cc(n(C)n1)CSc1cc(c3ccccc3c1)OCCCc1c(C(=O)O)n(C)c3c-2c(Cl)ccc13 [AZD5991] + C=CCn1c(=O)c2cnc(Nc3ccc(N4CCN(C)CC4)cc3)nc2n1-c1cccc(C(C)(C)O)n1 [AZD1775] (first compound max 1 µM, partner max 1 µM) | 0.0621 | 0.0159 | 0.01 | -0.0157 | -0.0379 | -0.0043 | -0.0012 | 0.0204 | -0.048 | 0.0634 | 0.0071 | -0.023 | -0.0407 | -0.0139 | -0.0643 | 0.0305 | 0.0026 | -0.0201 | -0.0632 | 0.0071
13 | CC1(C)CCC(CN2CCN(c3ccc(C(=O)NS(=O)(=O)c4ccc(NCC5CCOCC5)c([N+](=O)[O-])c4)c(Oc4cnc5[nH]ccc5c4)c3)CC2)=C(c2ccc(Cl)cc2)C1 [Venetoclax] + CN(C)CCCOc1ccc(-c2ccc3ncc4c(c3c2)n(C2CCOCC2)c(=O)n4C)cn1 [AZD0156] (first compound max 1 µM, 7x7, partner max 1 µM) | -0.0261 | 0.0303 | 0.0002 | -0.0566 | 0.0092 | 0.0196 | 0.0221 | 0.0004 | -0.0023 | 0.0025 | -0.0429 | -0.033 | -0.0446 | -0.0007 | -0.0022 | 0.0766 | -0.0012 | -0.0134 | -0.028 | -0.0466
14 | COc1nnc2ccc(N3CCC(c4ccc(OCCN5CCN(C)C(=O)[C@H]5C)cc4)CC3)nn12 [AZD5153] + C[C@@H]1COCCN1C2=NC(=NC(=C2)C3(CC3)[S@](=N)(=O)C)C4=C5C=CNC5=NC=C4 [AZD6738] (first compound max 1 µM, 7x7, partner max 10 µM) | -0.0094 | 0.0023 | 0.0041 | -0.0516 | -0.0108 | 0.0394 | 0.0406 | -0.117 | 0.0493 | -0.0383 | -0.006 | -0.0427 | 0.0009 | 0.0175 | 0.0137 | 0.0792 | 0.079 | -0.0075 | -0.0501 | 0.0195
